Measured values published in US12186283B2, “Bismuth-thiol compositions and methods of use” (Microbion Corporation, priority 2018, dated 2025).
Where two headings read alike, the source gives them in different places.

What was measured:
[1] = system: Pseudomonas aeruginosa strain PA01; assay: Bacterial killing curves with and without 10% CF patient sputum; settings: for bactericidal activity: PA01, 0.1 μg/mL; for effect of CF patient sputum on bactericidal activity: PA01, 10% CF patient sputum
S. aureus ATCC 29213 = settings: control strain ATCC 29213 S. aureus; per CLSI M100-S24 or provided by Microbion; cited from earlier work
[2] = system: beta-hemolytic streptococci (S. pyogenes, S. agalactiae); assay: Broth microdilution MIC (Example 11); type: cell-based, Streptococcus pyogenes, Streptococcus agalactiae
Escherichia coli = settings: cited from earlier work
P. aeruginosa = P. aeruginosa isolate 103, CLSI QC range in parenthesis, cited from earlier work
Pseudomonas aeruginosa = settings: P. aeruginosa ATCC 27853, QC organism; cited from earlier work
E. coli ATCC 25922 = settings: CLSI established QC range; cited from earlier work
[3] = E. coli ATCC 25922, QC organism

| SMILES | bactericidal activity [1] | more surviving in cultures with sputum ([1]; PA01, 4 μg/mL, 10% CF sputum, 3-6 hours) | killing over the assay ([1]; PA01, 4 μg/mL, absence of sputum, 6 hour assay) | time to sterilization below the limit of detection ([1]; PA01, 20 μg/mL, with and without sputum) | effect of CF patient sputum on bactericidal activity [1] | Expected MIC: goal (S. aureus ATCC 29213) | MIC ([2]; S. agalactiae MMX 3741, ERY^R CC^R) | MIC ([2]; S. agalactiae MMX 3743, ERY^R CC^R) | MIC ([2]; S. agalactiae MMX 4077, ERY^R CC^R) | MIC ([2]; S. agalactiae MMX 4086, ERY^R CC^R) | MIC values (range across isolates) ([2]; macrolide-resistant S. pyogenes, clindamycin-resistant S. agalactiae) | MIC, QC range (Escherichia coli; [3]) | MIC, CLSI QC range (P. aeruginosa; Table 24) | MIC, CLSI QC range (P. aeruginosa; Table 26) | MIC, QC range (Pseudomonas aeruginosa) | QC Range 24 hr (E. coli ATCC 25922) | MIC, QC range (Escherichia coli; E. coli ATCC 35218, QC organism) |
| --- | --- | --- | --- | --- | --- | --- | --- | --- | --- | --- | --- | --- | --- | --- | --- | --- | --- |
| CC(S)C(C)S.[Bi] (stereo not drawn) [BisBDT, bismuth-2,3-butanedithiol] | not bactericidal | 0.5-0.8 log CFU/mL | about 1 log | ≤ 5 h | partially inhibited | 0.25 mg/L | 0.25 mg/L | 0.25 mg/L | 0.25 mg/L | 0.25 mg/L | 0.03 to 2 mg/L | – | – | – | – | – | – |
| C1C[S][Bi]([S]CC[S][Bi]2[S]CC[S]2)[S]1 [BisEDT, bismuth-1,2-ethanedithiol] | not bactericidal | – | – | – | partially inhibited | 0.25 to 0.5 mg/L | – | – | – | – | – | (0.5-4)^1 μg/mL | (0.5-4)^2 μg/mL | (0.5-4) μg/mL | (0.5-4) μg/mL | 0.5-4 | – |
| C[C@@H](O)[C@H]1C(=O)N2C(C(=O)O)=C(S[C@@H]3CN[C@H](C(=O)N(C)C)C3)[C@H](C)[C@H]12 [MEM] | – | – | – | – | – | – | – | – | – | – | – | (0.008-0.06) μg/mL | (0.12-1) μg/mL | (0.12-1) μg/mL | (0.12-1) μg/mL | – | (0.008-0.06) μg/mL |
